Read-outs that look alike come from different tables or passages of the source.
Biological target: T1, human muscarinic M3 receptor (Homo sapiens, UniProt P20309)
T1 construct: expressed in transfected cells
Assay: hM3 β-Lac potency assay (cell based β-lactamase)
Conditions: CHO cells expressing human M3 receptor, NFAT β-lactamase reporter, IC50 converted to Ki by Cheng-Prusoff, read-out: Cell based β-lactamase M3 Ki

[1] = inhibition of 80 nM carbamyl choline signal, 4 h

T1 sequence (P20309 whole entry): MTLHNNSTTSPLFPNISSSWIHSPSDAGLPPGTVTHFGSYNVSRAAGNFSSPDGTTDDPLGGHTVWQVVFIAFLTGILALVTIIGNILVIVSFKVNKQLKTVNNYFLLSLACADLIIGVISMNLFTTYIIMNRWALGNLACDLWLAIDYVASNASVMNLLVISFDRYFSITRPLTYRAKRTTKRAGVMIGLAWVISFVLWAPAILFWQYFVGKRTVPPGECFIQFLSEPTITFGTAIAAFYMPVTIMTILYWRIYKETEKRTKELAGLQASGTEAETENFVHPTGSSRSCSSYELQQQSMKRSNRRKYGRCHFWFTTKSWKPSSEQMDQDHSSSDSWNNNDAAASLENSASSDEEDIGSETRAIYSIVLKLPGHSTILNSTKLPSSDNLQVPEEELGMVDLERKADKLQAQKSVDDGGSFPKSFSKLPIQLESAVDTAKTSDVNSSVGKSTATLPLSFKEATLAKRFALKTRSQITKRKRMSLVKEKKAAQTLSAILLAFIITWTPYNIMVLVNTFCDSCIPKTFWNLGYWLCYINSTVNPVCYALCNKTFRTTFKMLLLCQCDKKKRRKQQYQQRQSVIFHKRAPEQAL

Row | Compound | Ki [1] [nM] | Ki ([…]) [nM]
1 | COc1cc(OC2CN(C(C)(C)CCC(C(N)=O)(c3ccccc3)c3ccccc3)C2)ccc1Cl [Example 113, 5-[3-(4-Chloro-3-methoxy-phenoxy)-azetidin-1-yl]-5-methyl-2,2-diphenylhexanamide] | 7.22 | 
2 | CC(C)(CCC(C(N)=O)(c1ccccc1)c1ccccc1)N1CC(Oc2ccc(Cl)c(O)c2)C1 [Example 114, 5-[3-(4-Chloro-3-hydroxy-phenoxy)-azetidin-1-yl]-5-methyl-2,2-diphenylhexanamide] | 1.94 | 
3 | CC(C)(CCC(C(N)=O)(c1ccccc1)c1ccccc1)N1CC(OCc2cccc(O)c2)C1 [Example 115, 5-[3-(3-Hydroxy-benzyloxy)-azetidin-1-yl]-5-methyl-2,2-diphenyl-hexanoic acid amide] | 0.176 | 
4 | CC(C)(CCC(C(N)=O)(c1ccccc1)c1ccccc1)N1CC(Oc2cc(O)ccc2Cl)C1 [Example 118, 5-[3-(2-Chloro-5-hydroxy-phenoxy)-azetidin-1-yl]-5-methyl-2,2-diphenyl-hexanoic acid amide] | 40.7 | 
5 | CC(C)(CCC(C(N)=O)(c1ccccc1)c1ccccc1)N1CC(Oc2cc(O)cc(Cl)c2)C1 [Example 124, 5-[3-(3-Chloro-5-hydroxy-phenoxy)-azetidin-1-yl]-5-methyl-2,2-diphenylhexanamide] | 0.223 | 
6 | CC(C)(CCC(C(N)=O)(c1ccccc1)c1ccccc1)N1CC(Oc2ccc(F)cc2O)C1 [Example 127] | 110 | 
7 | NC(=O)C(CCC1(N2CC(Oc3ccc(O)c(F)c3)C2)CCCC1)(c1ccccc1)c1ccccc1 [Example 145, 4-{1-[3-(3-Fluoro-4-hydroxy-phenoxy)-azetidin-1-yl]-cyclopentyl}-2,2-diphenyl-butyramide] | 10.8 | 
8 | CC(C)(CCC(C(N)=O)(c1ccccc1)c1ccccc1)N1CC(OCc2ccc(O)c(Cl)c2)C1 [Example 146, 5-[3-(3-Chloro-4-hydroxy-benzyloxy)-azetidin-1-yl]-5-methyl-2,2-diphenyl-hexanoic acid amide] | 0.247 | 
9 | CC(C)(CCC(C(N)=O)(c1ccccc1)c1ccccc1)N1CC(OCc2ccc(Cl)cc2O)C1 [Example 147, 5-[3-(4-Chloro-2-hydroxy-benzyloxy)-azetidin-1-yl]-5-methyl-2,2-diphenyl-hexanoic acid amide] | 33.4 | 
10 | CC(C)(CCC(C(N)=O)(c1ccccc1)c1ccccc1)N1CC(OCc2cccc(O)c2Cl)C1 [Example 148, 5-[3-(2-Chloro-3-hydroxy-benzyloxy)-azetidin-1-yl]-5-methyl-2,2-diphenyl-hexanoic acid amide] | 0.353 | 
11 | CC(C)(CCC(C(N)=O)(c1ccccc1)c1ccccc1)N1CC(Oc2cc(O)cc(O)c2)C1 [Example 149, 5-[3-(3,5-Dihydroxy-phenoxy)-azetidin-1-yl]-5-methyl-2,2-diphenyl-hexanoic acid amide] | 0.714 | 
12 | CC(C)(CCC(C#N)(c1ccccc1)c1ccccc1)N1CC(Oc2cccc(O)c2)C1 [Example 150, 5-[3-(3-Hydroxy-phenoxy)-azetidin-1-yl]-5-methyl-2,2-diphenyl-hexanenitrile] | 1.05 | 
13 | CC(C)(CCC(C#N)(c1ccccc1)c1ccccc1)N1CC(OCc2ccc(O)cc2)C1 [Example 151, 5-{3-[(4-Hydroxybenzyl)oxy]azetidin-1-yl}-5-methyl-2,2-diphenylhexanenitrile] |  | 0.191
14 | CC(C)(CCC(C(N)=O)(c1ccccc1)c1ccccc1)N1CC(OCc2ccc(O)cc2)C1 [Example 152, 5-[3-(4-Hydroxy-benzyloxy)-azetidin-1-yl]-5-methyl-2,2-diphenyl-hexanoic acid amide] | 0.229 | 

Continued by falling Ki [1], values first:

Row | Ki [1] [nM] | Compound | Ki ([…]) [nM]
15 | 76.9 | CC(C)(CCC(C(N)=O)(c1ccccc1)c1ccccc1)N1CC(Oc2cc(Cl)c(Cl)cc2O)C1 [Example 111, 5-{3-(4,5-Dichloro-2-hydroxy-phenoxy)-azetidin-1-yl}-5-methyl-2,2-diphenylhexanamide] | 
16 | 8.19 | CC(C)(CCC(C(N)=O)(c1ccccc1)c1ccccc1)N1CC(OCc2c(Cl)ccc(O)c2Cl)C1 [Example 128, 5-[3-(2,6-Dichloro-3-hydroxy-benzyloxy)-azetidin-1-yl]-5-methyl-2,2-diphenyl-hexanoic acid amide] | 
17 | 8.05 | CC(C)(CCC(C(N)=O)(c1ccccc1)c1ccccc1)N1CC(Oc2cc(O)cc(Br)c2)C1 [Example 142, 5-[3-(3-Bromo-5-hydroxy-phenoxy)-azetidin-1-yl]-5-methyl-2,2-diphenyl-hexanoic acid amide] | 
18 | 5.39 | NC(=O)C(CCC1(N2CC(Oc3ccc(Cl)c(O)c3)C2)CCCC1)(c1ccccc1)c1ccccc1 [Example 139, 4-{1-[3-(4-Chloro-3-hydroxy-phenoxy)-azetidin-1-yl]-cyclopentyl}-2,2-diphenyl-butyramide] | 
19 | 0.604 | CC(C)(CCC(C(N)=O)(c1ccccc1)c1ccccc1)N1CC(Oc2cc(O)cc(F)c2)C1 [Example 121, 5-{3-(3-Fluoro-5-hydroxy-phenoxy)-azetidin-1-yl}-5-methyl-2,2-diphenylhexanamide] | 
20 | 0.468 | CC(C)(CCC(C(N)=O)(c1ccccc1)c1ccccc1)N1CC(OCc2ccc(Cl)c(O)c2)C1 [Example 138, 5-[3-(4-Chloro-3-hydroxy-benzyloxy)-azetidin-1-yl]-5-methyl-2,2-diphenyl-hexanoic acid amide] | 

Reference: US8268881B2, “Carboxamide derivatives as muscarinic receptor antagonists” (Pfizer Limited, priority 2005, dated 2012)
